Earlier results in patent US20030133872A1, “Radiopharmaceutical agent for the treatment of early stage cancer” (priority 2001, published 2003).

Conditions: Woolfenden et al., Int. J. Nucl. Med. 10 (4), 251-256 (1983)

liver uptake: high liver uptake
SMILES: [153Sm+3].[Cl-].[Cl-].[Cl-] [^153Sm-chloride]
